Patent US20260125397A1, “MK2 DEGRADERS AND USES THEREOF” (Kymera Therapeutics, Inc., priority 2023, published 2026)

Experiments:
MK2 [1] = target: T1, MK2 (Homo sapiens, UniProt P49137); test: MK2 degradation in human SW1353 cells (MSD, 24 h); type: cell-based; set-up: endogenous in cells; host or cells: SW-1353 (ATCC HTB-94); details: for Dmax: read-out: MK2 MSD SW 1353 24 h Dmax %; for DC50: read-out: MK2 MSD SW1353 degradation 24 h GMean External Abs DC50
Experimental: The human chondrocyte cancer cell line SW-1353 (ATCC(HTB-94)) was cultured in 96 well plates (Coming 3894) at a density of 200,000 cells per well in 100 microlitres in complete growth medium of Leibovitz's L-15 Medium (Gibco) pus 10% fetal Bovine Serum (Coming) and Penicillin/Streptomycin (SolarBio) at 37 degrees Celsius. A serial dilution of each compound (usually 3 to 5 fold serial dilutions up to 10 separate concentration points) was added to individual wells from a 10 millimolar stock solution, at a background concentration of 0.10% DMSO and the cells were shaken at 600 rpm for 5 minutes and then were cultured for 24 hours at 37 degrees Celsius. Separately, a custom MSD (MesoScaleDiscovery, L15XA-3) plate for detection of human MK2 was prepared by coating the plate with the commercial AbCam ab247272 reagent in 1× Phosphate Buffered Saline at 40 microlitres per well and incubated at 4 degrees Celsius overnight. The next day, the MSD plate was washed with 150 microlitres of Tween buffered saline, blocked with MSD blocking buffer (3% Blocker A from MSD), and washed again.
The cell plate was centrifuged at 3,200 g for 5 minutes and the supernatant was discarded and 100 microlitres of RIPA lysis buffer (containing proteinase inhibitors, Boston BioProducts BP-115D) was added and the plate was sealed and shaken on ice for 20 minutes. The plate was centrifuged as before and 70 microlitres of sample lysate was added to the MSD plates and they were shaken at room temperature for 1 hour at 600 rpm. The MSD plate was washed 3 times as before and then the primary MK2 detection antibody (Santa Cruz sc-100393) was added at a final concentration of 1 microgram per ml at 25 microlitres per well and shaken at room temperature for 1 hour at 600 rpm.
(§1) After 3 more washes, the secondary detection antibody (SULFO-Tag anti rabbit antibody R32AB-5) was added at a final concentration of 1 microgram per ml at 25 microlitres per well and shaken at room temperature for 1 hour at 600 rpm. After 3 more washes, the 1X MSD (diluted from 5X concentrate with water) reading buffer was added at 150 microlitres per well and read on the MSD instrument Meso Sector S 600.
(§2) The inhibition/degradation curves and DC50 values were plotted and calculated using XL Fit (version v5.3.1.3) using equation 201 and a 4 parameter logistic model whereby fit=(A+((B−A)/(1+((x/C)D))) where A is the Bottom and B is the Top and C is the IC50 and D is the slope and high C is the signal for the DMSO treated cells and Low C is the signal is the signal for the lysis buffer.

MK2 [2] = target: T1, MK2; test: MK2 degradation in human THP-1 monocytic cells (MSD, 24 h); type: cell-based; set-up: endogenous in cells; details: THP-1 cells; for DC50: read-out: MK2 MSD THP-1 degradation 24 h GMean External Abs DC50
Experimental: The human monocytic cancer cell line THP-1 (ATCC (TIB-202)) was cultured in 96 well plates (Coming 3894) at a density of 200,000 cells per well in 100 microlitres in complete growth medium of RPMI 1640 (Gibco) pus 10% fetal Bovine Serum (Coming) and Penicillin/Streptomycin (SolarBio) at 37 degrees Celsius and 5% CO2. A serial dilution of each compound (usually 3 to 5 fold serial dilutions up to 10 separate concentration points) was added to individual wells from a 10 millimolar stock solution, at a background concentration of 0.1% DMSO and the cells were shaken at 600 rpm for 5 minutes and then were cultured for 24 hours at 37 degrees Celsius and 5% carbon dioxide. Separately, a custom MSD (MesoScaleDiscovery, L15XA-3) plate for detection of human MK2 was prepared by coating the plate with the commercial AbCarn ab247272 reagent in 1× Phosphate Buffered Saline at 40 microlitres per well and incubated at 4 degrees Celsius overnight. The next day, the MSD plate was washed with 150 microlitres of Tween buffered saline, blocked with MSD blocking buffer (3% BlockerA from MSD), and washed again.
The cell plate was centrifuged at 3,200 g for 5 minutes and the supernatant was discarded and 100 microlitres of RIPA lysis buffer (containing proteinase inhibitors, Boston BioProducts BP-115D) was added and the plate was sealed and shaken on ice for 20 minutes. The plate was centrifuged as before and 70 microlitres of sample lysate was added to the MSD plates and they were shaken at room temperature for I hour at 600 rpm. The MSD plate was washed 3 times as before and then the primary MK2 detection antibody (Santa Cruz sc-100393) was added at a final concentration of 1 microgram per ml at 25 microlitres per well and shaken at room temperature for 1 hour at 600 rpm.
as §1
as §2, with “IC50and” for “IC50 and”

T1 sequence (P49137 whole entry): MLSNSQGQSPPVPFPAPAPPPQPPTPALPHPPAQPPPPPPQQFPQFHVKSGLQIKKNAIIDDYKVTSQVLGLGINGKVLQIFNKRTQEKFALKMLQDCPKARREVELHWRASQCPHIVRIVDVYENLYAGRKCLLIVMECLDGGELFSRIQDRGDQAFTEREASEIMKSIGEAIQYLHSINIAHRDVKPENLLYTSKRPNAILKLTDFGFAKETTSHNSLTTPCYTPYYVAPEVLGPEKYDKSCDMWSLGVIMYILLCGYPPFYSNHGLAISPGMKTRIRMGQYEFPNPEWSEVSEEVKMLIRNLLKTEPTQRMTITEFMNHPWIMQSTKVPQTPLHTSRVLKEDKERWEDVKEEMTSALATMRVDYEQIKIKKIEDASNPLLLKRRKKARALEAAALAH

## C[C@@H]1CNc2c(sc3ccc4nc(N5CCN(CC6CCC7(CC6)CN(c6ccc(NC8CCC(=O)NC8=O)cc6F)C7)CC5)ccc4c23)C(=O)N1 (stereo partly shown) [I-20]
MK2 [1]
  Dmax: > 75%
  DC50: 1 to 10 nM
MK2 [2]
  Dmax: > 75%
  DC50: 1 to 10 nM

## C[C@@H]1CNc2c(sc3ccc4nc(N5CC[C@H](N(C)C6CC7(CCN(c8ccc9c(c8)n(C)c(=O)n9C8CCC(=O)NC8=O)CC7)C6)C(F)(F)C5)ccc4c23)C(=O)N1 (stereo partly shown) [I-21]
MK2 [1]
  Dmax: > 75%
  DC50: < 1 nM
MK2 [2]
  Dmax: > 75%
  DC50: < 1 nM

## Cn1c(=O)n(C2CCC(=O)NC2=O)c2ccc(N3CC(CN4CCN(c5ccc(-c6nccc(-c7cc8c([nH]7)C(C)(C)CNC8=O)n6)cc5)CC4)C3)cc21 (stereo not shown) [I-22]
MK2 [1]
  Dmax: > 75%
  DC50: < 1 nM
MK2 [2]
  Dmax: > 75%
  DC50: < 1 nM

## C[C@@H]1CNc2c(sc3ccc4nc(N5CCN(CC6CCC7(CC6)CN(c6ccc8c(N9CCC(=O)NC9=O)cncc8c6)C7)CC5)ccc4c23)C(=O)N1 [I-23]
MK2 [1]
  Dmax: > 75%
  DC50: < 1 nM
MK2 [2]
  Dmax: > 75%
  DC50: < 1 nM

## Cn1c(=O)n(C2CCC(=O)NC2=O)c2cccc(OCCN3CCN(c4ccc(-c5nccc(-c6cc7c([nH]6)C6(CC6)CNC7=O)n5)c(F)c4)CC3)c21 (stereo not shown) [I-24]
MK2 [1]
  Dmax: > 75%
  DC50: 1 to 10 nM
MK2 [2]
  Dmax: > 75%
  DC50: < 1 nM

## C[C@@H]1CNc2c(sc3ccc4nc(N5CCN(C6CC7(CCN(c8ccc(NC9CCC(=O)NC9=O)cc8F)CC7)C6)CC5)ccc4c23)C(=O)N1 (stereo partly shown) [I-25]
MK2 [1]
  Dmax: > 75%
  DC50: 1 to 10 nM
MK2 [2]
  Dmax: > 75%
  DC50: < 1 nM

## C[C@@H]1CNc2c(sc3ccc4nc(N5CCN(CCC6CCC7(CC6)CCN(C(=O)c6ccc(Cl)c(N8CCC(=O)NC8=O)c6)CC7)CC5)ccc4c23)C(=O)N1 [I-26]
MK2 [1]
  Dmax: > 75%
  DC50: 1 to 10 nM
MK2 [2]
  Dmax: > 75%
  DC50: < 1 nM

## C[C@@H]1CNc2c(sc3ccc4nc(N5CCC(N(CC(F)(F)F)C6CC7(CCN(c8ccc9c(c8)n(C)c(=O)n9C8CCC(=O)NC8=O)CC7)C6)CC5)ccc4c23)C(=O)N1 (stereo partly shown) [I-27]
MK2 [1]
  Dmax: > 75%
  DC50: 1 to 10 nM
MK2 [2]
  Dmax: > 75%
  DC50: < 1 nM

## Cn1c(=O)n(C2CCC(=O)NC2=O)c2ccc(N3CC(CN4CCN(c5ccc(-c6cc(-c7cc8c(o7)C7(CC7)CNC8=O)ccn6)cc5)CC4)C3)cc21 (stereo not shown) [I-28]
MK2 [1]
  Dmax: > 75%
  DC50: < 1 nM
MK2 [2]
  Dmax: > 75%
  DC50: < 1 nM

## Cn1c(=O)n(C2CCC(=O)NC2=O)c2ccc(N3CC(CN4CCN(c5ccc(-c6cc(-c7cc8c(o7)C7(CC7)CNC8=O)ncn6)cc5)CC4)C3)cc21 (stereo not shown) [I-29]
MK2 [1]
  Dmax: > 50%
  DC50: > 100 nM
MK2 [2]
  Dmax: > 50%
  DC50: > 100 nM

## Cn1c(=O)n(C2CCC(=O)NC2=O)c2ccc(N3CC(CN4CCN(c5ccc(-c6cc(-c7cc8c([nH]7)C7(CC7)CNC8=O)ncn6)cc5)CC4)C3)cc21 (stereo not shown) [I-30]
MK2 [1]
  Dmax: 50 to 75%
  DC50: < 1 nM
MK2 [2]
  Dmax: 50 to 75%
  DC50: < 1 nM

## O=C1CCN(c2cncc3c(CCN4CCN(c5ccc(-c6nccc(-c7cc8c([nH]7)C7(CCC7)CNC8=O)n6)c(F)c5)CC4)cccc23)C(=O)N1 [I-31]
MK2 [1]
  Dmax: > 75%
  DC50: 1 to 10 nM
MK2 [2]
  Dmax: > 75%
  DC50: < 1 nM

## Cn1c(=O)n(C2CCC(=O)NC2=O)c2cccc(-n3ccc(N4CCN(c5ccc(-c6nccc(-c7cc8c([nH]7)C7(CCCC7)CNC8=O)n6)cc5)CC4)c3)c21 (stereo not shown) [I-32]
MK2 [1]
  Dmax: > 50%
  DC50: > 100 nM
MK2 [2]
  Dmax: > 50%
  DC50: > 100 nM

## Cn1c(=O)n(C2CCC(=O)NC2=O)c2cccc(N3CCC(N4CCN(c5ccc(-c6nccc(-c7cc8c([nH]7)C7(CCCC7)CNC8=O)n6)cc5)CC4)C3)c21 (stereo not shown) [I-33]
MK2 [1]
  Dmax: 50 to 75%
  DC50: 1 to 10 nM
MK2 [2]
  Dmax: 50 to 75%
  DC50: 1 to 10 nM

## Cn1c(=O)n(C2CCC(=O)NC2=O)c2ccc(N3CC(CN4CCC(N5CCN(c6nccc(-c7cc8c([nH]7)C7(CC7)CNC8=O)n6)CC5)CC4)C3)cc21 (stereo not shown) [I-34]
MK2 [1]
  Dmax: > 50%
  DC50: > 100 nM
MK2 [2]
  Dmax: > 50%
  DC50: > 100 nM

## C[C@@H]1CNc2c(sc3ccc4nc(N5CCN(CCC6CC7(CCN(C(=O)c8ccc(Cl)c(N9CCC(=O)NC9=O)c8)CC7)C6)CC5)ccc4c23)C(=O)N1 [I-35]
MK2 [1]
  Dmax: > 75%
  DC50: < 1 nM
MK2 [2]
  Dmax: > 75%
  DC50: < 1 nM

## C[C@@H]1CNc2c(sc3ccc4nc(N5CCC(OC6CCC7(CC6)CN(c6ccc8c(c6)n(C)c(=O)n8C6CCC(=O)NC6=O)C7)CC5)ccc4c23)C(=O)N1 (stereo partly shown) [I-36]
MK2 [1]
  Dmax: > 75%
  DC50: < 1 nM
MK2 [2]
  Dmax: > 75%
  DC50: < 1 nM

## Cn1c(=O)n(C2CCC(=O)NC2=O)c2ccc(N3CC(CN4CCN(c5ccc(-c6nccc(-c7cc8c([nH]7)C7(CC7)CNC8=O)n6)cc5C#N)CC4)C3)cc21 (stereo not shown) [I-37]
MK2 [1]
  Dmax: > 75%
  DC50: < 1 nM
MK2 [2]
  Dmax: > 75%
  DC50: < 1 nM

## C[C@@H]1CNc2c(sc3ccc4nc(N5CCC(COC6CCN(c7ccc8c(c7)n(C)c(=O)n8C7CCC(=O)NC7=O)CC6)CC5)ccc4c23)C(=O)N1 (stereo partly shown) [I-38]
MK2 [1]
  Dmax: 50 to 75%
  DC50: < 1 nM
MK2 [2]
  Dmax: 50 to 75%
  DC50: < 1 nM

## C[C@@H]1CNc2c(sc3ccc4nc(N5CCN(C[C@H]6C[C@]7(CCN(c8ccc9c(c8)n(C)c(=O)n9C8CCC(=O)NC8=O)C7)C6)CC5)ccc4c23)C(=O)N1 (stereo partly shown) [I-39]
MK2 [1]
  Dmax: > 50%
  DC50: < 1 nM
MK2 [2]
  Dmax: > 50%
  DC50: < 1 nM

## C[C@@H]1CNc2c(sc3ccc4nc(N5CCN(C[C@H]6C[C@@]7(CCN(c8ccc9c(c8)n(C)c(=O)n9C8CCC(=O)NC8=O)C7)C6)CC5)ccc4c23)C(=O)N1 (stereo partly shown) [I-40]
MK2 [1]
  Dmax: > 75%
  DC50: < 1 nM
MK2 [2]
  Dmax: > 75%
  DC50: < 1 nM

## Cn1c(=O)n(C2CCC(=O)NC2=O)c2ccc(C#CCN3CCN(c4ccc(-c5nccc(-c6cc7c([nH]6)C6(CC6)CNC7=O)n5)cc4)CC3)cc21 (stereo not shown) [I-41]
MK2 [1]
  Dmax: 50 to 75%
  DC50: < 1 nM
MK2 [2]
  Dmax: > 75%
  DC50: < 1 nM

## COc1ccc2c(c1CCN1CCN(c3ccc(-c4nccc(-c5cc6c([nH]5)C5(CC5)CNC6=O)n4)cc3)CC1)n(C)c(=O)n2C1CCC(=O)NC1=O (stereo not shown) [I-42]
MK2 [1]
  Dmax: > 75%
  DC50: < 1 nM
MK2 [2]
  Dmax: > 75%
  DC50: < 1 nM

## C[C@@H]1CNc2c(sc3ccc4nc(N5CCC(CN6CCC(N7CC(c8ccc9c(c8)n(C)c(=O)n9C8CCC(=O)NC8=O)C7)CC6)CC5)ccc4c23)C(=O)N1 (stereo partly shown) [I-43]
MK2 [1]
  Dmax: > 75%
  DC50: < 1 nM
MK2 [2]
  Dmax: > 75%
  DC50: < 1 nM

## Cn1c(=O)n(C2CCC(=O)NC2=O)c2ccc(N3CC(CN4CCC(n5cc(-c6nccc(-c7cc8c([nH]7)C7(CC7)CNC8=O)n6)cn5)CC4)C3)cc21 (stereo not shown) [I-44]
MK2 [1]
  Dmax: > 50%
  DC50: > 100 nM
MK2 [2]
  Dmax: > 50%
  DC50: > 100 nM
